Measurements taken from patent US20240024333A1, “USE OF SMALL MOLECULE FAK ACTIVATORS TO PROMOTE MUCOSAL HEALING” (Regents of the University of Minnesota, priority 2020, published 2024).
“Also recorded” adds a separate entry of the source. Where two headings read alike, the source gives them in different places.

How the values were obtained:
[1] = biological target: T1, FAK (Homo sapiens, UniProt Q05397); experiment: Cell-based FAK-Tyr-397 activation (Western blot, Caco-2 cells); settings: for FAK activation / FAK-Tyr-397 phosphorylation (in words): vs. DMSO vehicle control; for FAK-Tyr-397/FAK fold change: Cell-based FAK-Tyr-397 activation
T1 construct: endogenous in cells; host or cells: Caco-2 (human, ATCC)
Experimental: Human Caco-2 cells were from ATCC (Manassas, VA) and maintained in Dulbecco's Modified Essential Eagle's Medium supplemented with 10% FBS as described by us previously 25. 80-90% confluent Caco-2 cells were seeded into cell culture plates pacificated with 1% heat inactivated bovine serum albumin to prevent adhesion and avoid adhesion-associated background FAK activation. Suspended cells were then treated with DMSO (0.1%) or small molecules for 1 hour before harvesting for Western blotting.
Cells were lysed and protein concentration was determined via bicinchoninic acid protein assay (Thermo Fisher, Rockford, IL). […] Images were taken using a LICOR-Odyssey-Fc imaging system (LI-COR Biosciences, Lincoln, NE).

[2] = system: Caco-2 cells; experiment: Caco-2 monolayer wound closure assay; assay type: cell-based, human; settings: for monolayer wound closure / epithelial sheet migration (in words): in vitro, 24 hours
Experimental: Caco-2 cells were seeded at 75-80% confluence into collagen I coated 6-well plates. When the cells reached 100% confluence, wounds were made in the monolayers with non-barrier autoclaved tips. Wound images were captured using an inverted light microscope (OLYMPUS CK2, Center Valley, PA) at 0 hours and 24 hours after treatment with DMSO or small molecules. Wound areas were measured with Image J software.

[3] = biological target: T2, Pyk2 (Homo sapiens, UniProt Q14289); experiment: Pyk2 activation in intact cells; assay type: cell-based
T2 construct: endogenous in cells; host or cells: Caco-2

[4] = biological target: T3, Src (Homo sapiens, UniProt P12931); experiment: Src activation in intact cells; assay type: cell-based
T3 construct: endogenous in cells; host or cells: Caco-2

[5] = system: intestinal mucosal ulcers; experiment: Intestinal mucosal healing in vivo (model not given); set-up: species or system mice; settings: mouse
[6] = system: SH-SY5Y human neuronal cells; experiment: Cytotoxicity in SH-SY5Y cells; assay type: cell-based
[7] = system: mice; settings: mouse, in vivo
[8] = B/P ratio and blood-brain barrier crossing; assay type: in vivo; settings: for blood-brain barrier crossing (in words): in vivo
[9] = mouse, in vivo; for course of plasma levels after enteral dosing (in words): 10 mg/kg
[10] = Human plasma stability; assay type: in vitro ADME; settings: at 6 h
[11] = Cytotoxicity (cells not named); assay type: cell-based
[12] = Mini-Ames
Source text: (§1) The most successful molecules underwent in vitro ADMET assays, including mouse and human metabolic stability, solubility (pH 7.4), Caco-2 (permeability), and log D determination. We will evaluate lead candidates for drug-like properties, including aqueous solubility (PBS buffer, pH 7.4), pKa, lipophilicity, chemical stability at pH 1 (the pH of the stomach), pH 6 (small intestine), A-B partitioning (octanol-PBS buffer, pH 7.4), liver microsomal stability as an indication of potential first-pass metabolism (microsomes from mouse and humans), substrate potential for isoforms of human P450 such as CYP3A4, cell permeability (Caco-2 cells), hERG toxicity (cell lines), mutagenesis, and plasma protein binding (mouse & human). […]. Computed physical properties that correlate with good oral bioavailability and cell permeability will be calculated for new compounds throughout the optimization process and will […] also influence lead compound selection as will ligand efficiency (LE) and lipophilic efficiency (LLE). Molecules will be administered by gavage to mice at 30 mg/kg, and we will measure plasma levels at 2 and 4 hours. The most successful molecules in this regard (with the highest levels at 2 and 4 hours) may be further modified by developing combinations of modifications at different parts of the molecule.

[13] = Plasma protein binding; assay type: in vitro ADME
Source text: as §1

[14] = biological target: hERG (Homo sapiens, UniProt Q12809); experiment: hERG toxicity; assay type: cell-based
Source text: as §1

[15] = system: IMR-90 human pulmonary fibroblasts; experiment: Cytotoxicity in IMR-90 cells; assay type: cell-based; settings: for Cytotoxicity (LD50): IMR90
[16] = Solubility; assay type: physicochemical
Source text: as §1

[17] = in vivo; settings: mouse
[18] = log D determination; assay type: physicochemical; settings: pH 7.4
Source text: as §1

[19] = system: mice; experiment: Tolerability and toxicity in mice
[20] = system: ischemic ileal mucosal ulcers; experiment: Ischemic ileal ulcer model (acetic-acid-soaked discs on serosa); assay type: in vivo, mice; settings: for ischemic ulcer healing (in words): mice, 40: 30 mg/kg/day by osmotic minipump, 4 days, 30 mg/kg/day
[21] = over 8 weeks; cited from earlier work
[22] = biological target: CYP 2C9 (Homo sapiens, UniProt P11712); experiment: CYP 2C9 inhibition; assay type: in vitro ADME
Source text: as §1

[23] = biological target: CYP 2C19 (Homo sapiens, UniProt P33261); experiment: CYP 2C19 inhibition; assay type: in vitro ADME
Source text: as §1

[24] = biological target: CYP 2D6 (Homo sapiens, UniProt P10635); experiment: CYP 2D6 inhibition; assay type: in vitro ADME
Source text: as §1

[25] = biological target: FAK 35 kD kinase domain (Homo sapiens, UniProt Q05397); experiment: In vitro kinase assay with purified FAK kinase domain; settings: FIG. 5
Chain of FAK 35 kD kinase domain (Q05397 422-680 limits assumed): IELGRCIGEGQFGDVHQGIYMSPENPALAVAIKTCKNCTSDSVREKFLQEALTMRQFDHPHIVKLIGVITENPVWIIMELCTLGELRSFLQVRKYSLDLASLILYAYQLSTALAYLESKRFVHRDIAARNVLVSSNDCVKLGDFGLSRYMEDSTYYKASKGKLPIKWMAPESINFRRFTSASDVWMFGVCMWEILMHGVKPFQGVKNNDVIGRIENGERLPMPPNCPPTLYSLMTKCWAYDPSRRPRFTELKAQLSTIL

T2 sequence (Q14289 whole entry): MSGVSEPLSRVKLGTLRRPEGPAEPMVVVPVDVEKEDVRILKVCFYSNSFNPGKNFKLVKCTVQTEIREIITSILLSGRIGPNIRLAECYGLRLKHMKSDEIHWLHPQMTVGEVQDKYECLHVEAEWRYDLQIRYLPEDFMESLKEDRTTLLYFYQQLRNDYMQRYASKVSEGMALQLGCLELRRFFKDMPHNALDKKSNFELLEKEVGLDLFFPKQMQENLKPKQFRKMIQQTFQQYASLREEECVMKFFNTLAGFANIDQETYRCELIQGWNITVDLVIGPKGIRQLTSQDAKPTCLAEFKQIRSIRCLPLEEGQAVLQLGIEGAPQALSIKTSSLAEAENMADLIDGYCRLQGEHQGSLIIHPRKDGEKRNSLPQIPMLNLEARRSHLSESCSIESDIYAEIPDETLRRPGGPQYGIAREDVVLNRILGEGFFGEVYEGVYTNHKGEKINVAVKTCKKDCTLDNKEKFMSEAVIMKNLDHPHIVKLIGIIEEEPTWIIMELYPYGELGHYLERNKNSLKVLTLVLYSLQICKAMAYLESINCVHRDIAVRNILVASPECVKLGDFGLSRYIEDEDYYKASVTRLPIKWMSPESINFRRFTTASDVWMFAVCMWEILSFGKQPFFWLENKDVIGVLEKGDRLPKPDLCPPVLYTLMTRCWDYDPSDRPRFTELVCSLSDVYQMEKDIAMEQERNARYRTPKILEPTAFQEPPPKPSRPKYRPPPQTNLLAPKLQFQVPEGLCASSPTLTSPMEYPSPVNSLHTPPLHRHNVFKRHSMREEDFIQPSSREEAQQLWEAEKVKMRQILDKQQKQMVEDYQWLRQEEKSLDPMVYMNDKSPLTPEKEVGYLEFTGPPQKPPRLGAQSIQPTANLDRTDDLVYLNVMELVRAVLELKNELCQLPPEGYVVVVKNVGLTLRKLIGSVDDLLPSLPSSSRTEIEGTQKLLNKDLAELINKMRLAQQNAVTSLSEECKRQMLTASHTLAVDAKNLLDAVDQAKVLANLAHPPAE
T1 sequence (Q05397 whole entry): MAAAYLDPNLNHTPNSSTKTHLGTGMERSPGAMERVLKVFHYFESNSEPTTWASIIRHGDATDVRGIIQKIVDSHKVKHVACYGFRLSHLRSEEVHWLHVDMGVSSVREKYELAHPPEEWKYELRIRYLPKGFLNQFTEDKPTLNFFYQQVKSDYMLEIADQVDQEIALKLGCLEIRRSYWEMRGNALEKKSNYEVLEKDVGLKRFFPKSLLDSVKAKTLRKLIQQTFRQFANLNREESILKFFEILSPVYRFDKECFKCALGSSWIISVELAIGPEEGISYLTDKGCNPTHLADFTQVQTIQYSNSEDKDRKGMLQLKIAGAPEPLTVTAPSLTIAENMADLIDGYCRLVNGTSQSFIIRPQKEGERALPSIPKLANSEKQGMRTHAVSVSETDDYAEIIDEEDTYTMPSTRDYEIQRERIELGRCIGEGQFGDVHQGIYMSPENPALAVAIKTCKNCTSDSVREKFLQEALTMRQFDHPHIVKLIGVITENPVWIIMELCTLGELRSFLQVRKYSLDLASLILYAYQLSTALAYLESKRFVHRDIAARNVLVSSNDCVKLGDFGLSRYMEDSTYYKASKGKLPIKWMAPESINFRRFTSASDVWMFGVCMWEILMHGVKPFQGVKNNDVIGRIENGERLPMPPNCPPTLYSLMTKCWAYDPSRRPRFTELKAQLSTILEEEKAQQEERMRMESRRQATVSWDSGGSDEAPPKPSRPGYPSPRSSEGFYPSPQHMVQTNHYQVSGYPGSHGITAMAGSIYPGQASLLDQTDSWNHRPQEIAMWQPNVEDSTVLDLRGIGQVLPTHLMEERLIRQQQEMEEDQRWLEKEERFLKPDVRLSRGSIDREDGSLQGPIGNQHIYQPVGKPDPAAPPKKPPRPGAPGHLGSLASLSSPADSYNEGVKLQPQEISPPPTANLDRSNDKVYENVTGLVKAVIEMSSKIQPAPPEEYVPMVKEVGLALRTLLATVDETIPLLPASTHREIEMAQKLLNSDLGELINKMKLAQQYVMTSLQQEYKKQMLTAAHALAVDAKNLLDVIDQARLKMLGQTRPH
T3 sequence (P12931 whole entry): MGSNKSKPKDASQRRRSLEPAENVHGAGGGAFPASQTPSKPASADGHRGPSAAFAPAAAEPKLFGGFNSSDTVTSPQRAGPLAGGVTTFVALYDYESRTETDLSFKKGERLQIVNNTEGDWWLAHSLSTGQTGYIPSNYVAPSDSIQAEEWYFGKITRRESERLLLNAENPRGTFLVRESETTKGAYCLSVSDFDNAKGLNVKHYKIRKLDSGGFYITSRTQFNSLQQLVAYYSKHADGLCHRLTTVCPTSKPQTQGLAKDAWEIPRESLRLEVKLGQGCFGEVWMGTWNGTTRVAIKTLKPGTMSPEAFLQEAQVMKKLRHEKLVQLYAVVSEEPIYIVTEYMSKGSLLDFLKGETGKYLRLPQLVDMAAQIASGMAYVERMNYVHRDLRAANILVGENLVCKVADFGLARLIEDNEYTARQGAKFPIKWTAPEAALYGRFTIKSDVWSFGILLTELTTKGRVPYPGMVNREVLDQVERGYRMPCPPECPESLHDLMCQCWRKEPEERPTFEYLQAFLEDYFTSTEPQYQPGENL
Chain of hERG (Q12809 whole entry): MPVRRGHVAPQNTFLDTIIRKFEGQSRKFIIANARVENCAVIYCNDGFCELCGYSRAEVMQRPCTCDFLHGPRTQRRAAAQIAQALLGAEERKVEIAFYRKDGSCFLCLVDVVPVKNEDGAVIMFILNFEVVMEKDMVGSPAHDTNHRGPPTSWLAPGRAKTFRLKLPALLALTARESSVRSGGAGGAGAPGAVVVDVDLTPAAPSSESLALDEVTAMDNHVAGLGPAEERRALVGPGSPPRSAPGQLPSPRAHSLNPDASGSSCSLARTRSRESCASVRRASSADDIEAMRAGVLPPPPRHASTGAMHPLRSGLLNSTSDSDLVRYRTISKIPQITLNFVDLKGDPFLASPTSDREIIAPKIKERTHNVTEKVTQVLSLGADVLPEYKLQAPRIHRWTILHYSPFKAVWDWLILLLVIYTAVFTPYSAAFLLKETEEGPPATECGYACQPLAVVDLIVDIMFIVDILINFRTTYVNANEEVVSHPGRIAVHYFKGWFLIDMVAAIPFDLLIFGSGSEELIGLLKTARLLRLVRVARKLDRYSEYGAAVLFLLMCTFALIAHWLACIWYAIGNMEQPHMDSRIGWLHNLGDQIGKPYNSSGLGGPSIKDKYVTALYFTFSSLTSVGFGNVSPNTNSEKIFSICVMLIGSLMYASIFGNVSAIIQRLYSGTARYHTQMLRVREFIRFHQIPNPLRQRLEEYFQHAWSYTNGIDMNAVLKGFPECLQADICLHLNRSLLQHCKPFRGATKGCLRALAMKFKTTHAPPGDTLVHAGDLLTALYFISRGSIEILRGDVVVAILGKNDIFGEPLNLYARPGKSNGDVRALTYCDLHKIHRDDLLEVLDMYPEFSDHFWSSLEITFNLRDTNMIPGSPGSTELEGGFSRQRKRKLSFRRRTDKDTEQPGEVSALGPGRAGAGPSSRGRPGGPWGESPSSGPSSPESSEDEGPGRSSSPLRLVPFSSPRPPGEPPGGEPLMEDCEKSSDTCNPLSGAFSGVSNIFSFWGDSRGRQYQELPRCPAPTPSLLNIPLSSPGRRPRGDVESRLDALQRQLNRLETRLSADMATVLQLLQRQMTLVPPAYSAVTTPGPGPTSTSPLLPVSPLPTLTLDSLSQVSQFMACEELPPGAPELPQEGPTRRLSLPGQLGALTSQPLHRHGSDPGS
Chain of CYP 2C9 (P11712 whole entry): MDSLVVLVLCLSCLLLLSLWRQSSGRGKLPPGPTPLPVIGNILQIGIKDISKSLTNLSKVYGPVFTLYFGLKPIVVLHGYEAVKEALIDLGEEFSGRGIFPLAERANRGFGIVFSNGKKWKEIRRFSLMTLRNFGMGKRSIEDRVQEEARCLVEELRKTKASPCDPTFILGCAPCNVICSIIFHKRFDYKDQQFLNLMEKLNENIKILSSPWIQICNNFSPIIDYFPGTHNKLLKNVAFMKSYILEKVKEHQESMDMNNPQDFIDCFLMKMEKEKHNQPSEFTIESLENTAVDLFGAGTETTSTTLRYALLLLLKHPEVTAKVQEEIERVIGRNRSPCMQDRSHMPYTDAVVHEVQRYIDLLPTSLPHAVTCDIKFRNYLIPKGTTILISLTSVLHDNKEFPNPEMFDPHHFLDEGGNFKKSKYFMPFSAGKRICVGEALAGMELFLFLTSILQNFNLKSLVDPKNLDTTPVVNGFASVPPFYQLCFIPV
Chain of CYP 2C19 (P33261 whole entry): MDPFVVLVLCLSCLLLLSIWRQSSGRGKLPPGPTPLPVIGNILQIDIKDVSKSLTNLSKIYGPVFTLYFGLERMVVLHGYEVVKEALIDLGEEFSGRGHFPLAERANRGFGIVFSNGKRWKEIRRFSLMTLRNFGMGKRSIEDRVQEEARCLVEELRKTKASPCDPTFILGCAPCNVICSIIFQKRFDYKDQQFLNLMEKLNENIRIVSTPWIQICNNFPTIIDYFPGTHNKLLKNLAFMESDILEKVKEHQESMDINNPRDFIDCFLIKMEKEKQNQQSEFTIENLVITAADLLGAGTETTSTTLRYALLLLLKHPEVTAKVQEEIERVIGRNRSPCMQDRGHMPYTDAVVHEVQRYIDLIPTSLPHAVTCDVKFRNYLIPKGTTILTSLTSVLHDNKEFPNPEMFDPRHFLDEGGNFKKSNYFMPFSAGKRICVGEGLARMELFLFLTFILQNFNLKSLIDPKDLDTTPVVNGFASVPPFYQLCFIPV

## COc1ccc(C(CNC(=O)Nc2cc(C(F)(F)F)ccc2N2CCOCC2)N(C)C)cc1 (centres unmarked) [Compound 31]
[1]
  FAK activation / FAK-Tyr-397 phosphorylation (in words): seemed to activate FAK

## O=C(Nc1cc(C(F)(F)F)ccc1N1CCOCC1)N1CCCC1c1ccc(O)cc1 (centres unmarked) [Compound 49]
[1]
  FAK-Tyr-397/FAK fold change: 1.1 fold change

## COc1ccc(C2CCCN2C(=O)CC(NC(N)=O)c2ccccc2Cl)cc1OC (centres unmarked) [Compound 10]
[1]
  concentration as low as which FAK is activated: 10 nM

## O=C(Nc1cc(C(F)(F)F)ccc1C1CCOCC1)N1CCCC1c1ccccc1 (centres unmarked) [Compound 14]
[1]
  FAK-Tyr-397/FAK fold change: 1.0 fold change
  FAK activation / FAK-Tyr-397 phosphorylation (in words): reduced activation

## O=C(Nc1cc(C(F)(F)F)ccc1N1CCOCC1)N1CCCC1C1CCCCC1 (centres unmarked) [Compound 36]
[1]
  FAK activation / FAK-Tyr-397 phosphorylation (in words): seemed to activate FAK

## O=C(Nc1cc(C(F)(F)F)ccc1N1CCOCC1)N1CCCC1C1CCCCC1 (centres unmarked) [Compound 21]
[2]
  monolayer wound closure / epithelial sheet migration (in words): promote the healing of intestinal epithelial wounds in vitro
[1]
  concentration level of FAK activation (in words): nanomolar to picomolar levels
  FAK activation / FAK-Tyr-397 phosphorylation (in words): increased; also recorded: stimulate FAK phosphorylation at remarkably low concentrations

## COc1ccc(C2CCCN2C(=O)Nc2cc(C(F)(F)F)ccc2N2CCOCC2)cc1 (centres unmarked) [Compound 9]
[3]; intact cells
  Pyk2 activation (in words): activating neither
[2]
  monolayer wound closure / epithelial sheet migration (in words): stimulated monolayer wound closure
[4]; intact cells
  Src activation (in words): activating neither
[5]
  intestinal mucosal healing in vivo (in words): stimulated
[1]
  concentration as low as which FAK is activated: 10 nM
  FAK activation / FAK-Tyr-397 phosphorylation (in words): increased FAK-Tyr 397 phosphorylation

## CCN(C(=O)Nc1ccccc1N1CCOCC1)C(C)c1ccccc1 (centres unmarked) [Compound 48]
[1]
  FAK-Tyr-397/FAK fold change: 1.1 fold change
  FAK activation / FAK-Tyr-397 phosphorylation (in words): did not induce FAK phosphorylation

## COc1ccc(CC(C)C(=O)Nc2ccc(N(C)C)cc2C)cc1 (centres unmarked) [Compound 19]
[1]
  FAK activation / FAK-Tyr-397 phosphorylation (in words): does not enhance FAK activation

## O=C(Nc1cc(F)ccc1N1CCOCC1)N1CCCC1c1ccncc1 (centres unmarked) [Compound 25]
[1]
  FAK activation / FAK-Tyr-397 phosphorylation (in words): does not impair activity

## O=C(Nc1cc(C(F)(F)F)ccc1N1CCOCC1)N1CCCC1c1ccccc1 (centres unmarked) [Compound 37]
[1]
  FAK activation / FAK-Tyr-397 phosphorylation (in words): seemed to activate FAK

## CN(C)C(CNC(=O)Nc1cc(C(F)(F)F)ccc1N1CCOCC1)c1ccncc1 (centres unmarked) [Compound 40]
[6]
  Cytotoxicity (LD50): SYSY (LD50)~1 mM
  concentration at which cytotoxicity is displayed: 1000 µM
  cytotoxic concentration as multiple of the 100 pM that activates FAK: 10^7 ×
[3]; at 10 μM
  Pyk2 activation (in words): does not activate
[7]
  neurotoxicity (in words): no neurotoxicity was detected
  renal/hepatic histology, creatinine, ALT (in words): normal
[7]; 120 mg/kg
  serum chemistries (in words): normal
[2]; 100 nM
  wound closure after two 2-hour exposures vs full 24 hours of exposure: equivalent stimulation of wound closure
[2]; 100 nM, medium changed back after exposure
  wound closure at 24 hours after three-hour exposure vs 24 hours exposure: same effect as 24 hours
[2]; hydroxyurea present
  wound closure with proliferation blocked by hydroxyurea (in words): still stimulates Caco-2 monolayer wound closure
[2]
  monolayer wound closure / epithelial sheet migration (in words): stimulates wound closure; also recorded: promotes epithelial monolayer wound healing; also recorded: dose-responsive stimulation
[8]
  blood-brain barrier crossing (in words): cross the blood-brain barrier
[9]
  course of plasma levels after enteral dosing (in words): decline by two hours
[9]; 2 h
  course of plasma levels after enteral dosing (in words): decrease by 2 hours
[9]; 1 h
  plasma level after 240 mg/kg as multiple of therapeutic plasma level: ~6*10^6 ×
[10]
  Human plasma stability: 88.56% at 6 h
[4]; at 10 μM
  Src activation (in words): does not activate
[11]
  cytotoxicity (in words): no cytotoxicity at 10000× higher than effective doses; also recorded: neither cytotoxic nor carcinogenic
[12]
  Mini-Ames: negative
[13]
  Plasma protein binding: 91.39%
[14]; human
  hERG: hERG > 30 μM
[15]
  Cytotoxicity (LD50): SYSY (LD50)~1 mM
[15]; IMR-90
  concentration at which cytotoxicity is displayed: 1000 µM
  cytotoxic concentration as multiple of the 100 pM that activates FAK: 10^7 ×
[16]
  water solubility / need of DMSO (in words): does not require DMSO; also recorded: truly water soluble
[17]; 1.25 mg/kg
  concentration at 4 days: 26 ng/mL
[17]; T1/2
  half-life: ~1.5 h
[17]; plasma half-life
  half-life: 1.5 h
[18]
  log D7.4: log D7.4 = 2.87
[19]
  lethal single dose: 480 mg/kg
[20]
  ischemic ulcer healing (in words): much smaller ulcers; also recorded: acceleration of healing

## CCCCC(C)(O)C/C=C/[C@H]1[C@H](O)CC(=O)[C@@H]1CCCCCCC(=O)OC (mixture of isomers) [Misoprostol]
[21]
  serious side effects: 8%

## O=C(Nc1ccccc1N1CCOCC1)N1CCCC1c1ccncc1 (centres unmarked) [Compound 46]
[1]
  FAK-Tyr-397/FAK fold change: 1.1 fold change
  FAK activation / FAK-Tyr-397 phosphorylation (in words): did not induce FAK phosphorylation

## O=C(Nc1cc(C(F)(F)F)ccc1N1CCOCC1)N1CCCC1c1ccncc1 (centres unmarked) [Compound 24]
[22]
  IC50: 4.5 µM
[6]
  Cytotoxicity (LD50): >1 mM
[3]
  Selectivity against relative off-targets: no Pyk2 activation at multiple of FAK activation: activation at >1000 × × FAK activation
[7]
  neurotoxicity (in words): no neurotoxicity was detected
  tolerability / gross toxicity in mice (in words): without obvious toxicity
[2]
  concentration as low as which in vitro wound closure is stimulated: 100 pM
[8]; 2 h
  B/P ratio: B/P ratio <0.15
[8]
  blood-brain barrier crossing (in words): cross the blood-brain barrier
[9]; po
  oral / enteral absorption (in words): readily orally
[10]
  Human plasma stability: 98.62% at 6 h
[4]
  Selectivity against relative off-targets: no Src activation at multiple of FAK activation: activation at >1000 × × FAK activation
[12]
  Mini-Ames: negative
[23]
  IC50: 5.43 µM
[24]
  IC50: 10.1 µM
[13]; plasma
  fraction unbound: 0.0949
[14]
  hERG: hERG = 2.958 μM
[5]
  intestinal mucosal healing in vivo (in words): promoting small bowel mucosal wound healing
[15]
  Cytotoxicity (LD50): >1 mM
[16]
  water solubility / need of DMSO (in words): required DMSO solubilization; also recorded: somewhat less insoluble
[16]; PBS buffer, pH 7.4, aqueous buffer
  solubility: 252 µM
[17]; T1/2
  half-life: ~1.5 h
[18]
  log D7.4: log D7.4 = 3.12
[1]
  concentration level of FAK activation (in words): considerably lower concentration than 45
  FAK activation / FAK-Tyr-397 phosphorylation (in words): seemed to activate FAK
[1]; Caco-2 cells
  concentration as low as which FAK is activated: 0.1 nM
[1]; in vitro, assay not named in Table 4, read-out: FAK potency EC50
  EC50: < 0.01 µM
[20]
  ischemic ulcer healing (in words): accelerated; also recorded: can heal intestinal mucosal ulcers
[20]; × 4 days
  Mouse therapeutic dose: <30 mg/kg/day
[25]
  concentration of maximal effect in in vitro kinase assay: about 0.3 nM
